In brackets after ≈: the same amount, converted by molar mass. Read-outs that look alike come from different tables or passages of the source.
What was measured:
[1] = Drug solubility in receptor solutions and excipient solutions; type: physicochemical
[2] = Osmotic pressure of saturated solutions of drug and excipients; type: physicochemical; conditions: saturated solution of the labelled drug or of drug and the other tablet excipients; also printed as about 3 atm

Row | solubility ([1]; aqueous buffer, gastric buffer pH 1.5, read-out: Doxazosin solubility in the gastric buffer) [µg/mL] | solubility ([1]; aqueous buffer, intestinal buffer pH 7.5, read-out: Doxazosin solubility in the intestinal buffer) [µg/mL] | solubility ([1]; dextrose solutions adjusted to pH 4 with tartaric acid, read-out: doxazosin solubility in all the dextrose solutions) [µg/mL] | solubility ([1]; water, same in lactose and dextrose solutions adjusted to pH 4 with tartaric acid, read-out: doxazosin solubility in water) [µg/mL] | osmotic pressure of a saturated solution [2] | Trimazosin solubility lower in a saturated calcium lactate solution than in water [1] | solubility of trimazosin ([1]; water and 4 wt% magnesium sulfate solution) | Structure (SMILES) | solubility of trimazosin in the magnesium sulfate solution ([1]; 2.4-wt% magnesium sulfate solution compared with water)
1 | ~250 (≈ 0.554 mM) | < 10 | ~10000 (≈ 22.1 mM) | 10000 (≈ 22.1 mM) | – | – | – | COc1cc2nc(N3CCN(C(=O)C4COc5ccccc5O4)CC3)nc(N)c2cc1OC (centres unmarked) [doxazosin] | –
2 | – | – | – | – | about 304 kPa | about 40% | the same in both solutions | COc1cc2c(N)nc(N3CCN(C(=O)OCC(C)(C)O)CC3)nc2c(OC)c1OC [trimazosin] | the same as the trimazosin solubility in water
